{"source": "paper PMC9632963", "about": "“Preclinical characterization and phase I clinical trial of CT053PTSA targets MET, AXL, and VEGFR2 in patients with advanced solid tumors” (Frontiers in Immunology, 2022)", "key": {"AXL": {"biological_target": "AXL (Homo sapiens, UniProt P30530)", "experiment": "cell-based", "procedure": "Phosphorylation of the receptors MET, AXL, VEGFR2, and FLT3 was assessed in the transgenic human MKN45 gastric tumor cell line overexpressing MET, mouse embryonic fibroblasts (MEFs) expressing full-length human AXL (AXL-MEFs), human umbilical vein endothelial cells (HUVECs) […], and MEFs expressing full-length human FLT3 (FLT3-wt-MEFs), respectively. […] Then, HUVECs and FLT3-wt-MEFs were stimulated with the ligands VEGF-A (100 ng/ml, for 3 min) and FLT3-ligand (50 ng/ml, for 5 min). MKN45 (overexpressing MET) and AXL-MEFs cells had no stimulation. Cells treated with staurosporine (AXL, FLT3-wt, c-Kit, FLT3, TIE2, VEGF-R2; [1,0E-05 M]) or BMS777607 (MET; [1,0E-06 M]) or sunitinib (VEGF-R3; [1,0E-06 M]) or crizotinib (RON; [1,0E-05 M] were defined as low control (n = 8). The median value of those wells represented the background and was set to 0%. Cells treated with solvent alone were defined as high control (n = 8). The median value of those wells was set to 100%. Test sample-treated cells as well as high and low control were stimulated in identical manner. Quantification of receptor tyrosine kinase autophosphorylation was assessed in 96-well plates via sandwich ELISA using a receptor specific capture antibody and an anti-phosphotyrosine detection antibody. […]"}, "RET": {"biological_target": "RET (Homo sapiens, UniProt P07949)", "experiment": "Kinase inhibition assay (LANCE or HTRF)", "format": "biochemical", "details": "ATP at Km", "experimental": "(§1) The IC50 values were determined by measuring phosphorylation of peptide substrate poly at ATP concentrations at the Km."}, "MLK": {"biological_target": "MLK", "experiment": "Kinase inhibition assay (LANCE or HTRF)", "format": "biochemical, human", "details": "ATP at Km", "experimental": "as §1"}, "TXK": {"biological_target": "TXK (Homo sapiens, UniProt P42681)", "experiment": "Kinase inhibition assay (LANCE or HTRF)", "format": "biochemical", "details": "ATP at Km", "experimental": "as §1"}, "FLT4": {"biological_target": "FLT4 (Homo sapiens, UniProt P35916)", "sequence (P35916 25-1363)": "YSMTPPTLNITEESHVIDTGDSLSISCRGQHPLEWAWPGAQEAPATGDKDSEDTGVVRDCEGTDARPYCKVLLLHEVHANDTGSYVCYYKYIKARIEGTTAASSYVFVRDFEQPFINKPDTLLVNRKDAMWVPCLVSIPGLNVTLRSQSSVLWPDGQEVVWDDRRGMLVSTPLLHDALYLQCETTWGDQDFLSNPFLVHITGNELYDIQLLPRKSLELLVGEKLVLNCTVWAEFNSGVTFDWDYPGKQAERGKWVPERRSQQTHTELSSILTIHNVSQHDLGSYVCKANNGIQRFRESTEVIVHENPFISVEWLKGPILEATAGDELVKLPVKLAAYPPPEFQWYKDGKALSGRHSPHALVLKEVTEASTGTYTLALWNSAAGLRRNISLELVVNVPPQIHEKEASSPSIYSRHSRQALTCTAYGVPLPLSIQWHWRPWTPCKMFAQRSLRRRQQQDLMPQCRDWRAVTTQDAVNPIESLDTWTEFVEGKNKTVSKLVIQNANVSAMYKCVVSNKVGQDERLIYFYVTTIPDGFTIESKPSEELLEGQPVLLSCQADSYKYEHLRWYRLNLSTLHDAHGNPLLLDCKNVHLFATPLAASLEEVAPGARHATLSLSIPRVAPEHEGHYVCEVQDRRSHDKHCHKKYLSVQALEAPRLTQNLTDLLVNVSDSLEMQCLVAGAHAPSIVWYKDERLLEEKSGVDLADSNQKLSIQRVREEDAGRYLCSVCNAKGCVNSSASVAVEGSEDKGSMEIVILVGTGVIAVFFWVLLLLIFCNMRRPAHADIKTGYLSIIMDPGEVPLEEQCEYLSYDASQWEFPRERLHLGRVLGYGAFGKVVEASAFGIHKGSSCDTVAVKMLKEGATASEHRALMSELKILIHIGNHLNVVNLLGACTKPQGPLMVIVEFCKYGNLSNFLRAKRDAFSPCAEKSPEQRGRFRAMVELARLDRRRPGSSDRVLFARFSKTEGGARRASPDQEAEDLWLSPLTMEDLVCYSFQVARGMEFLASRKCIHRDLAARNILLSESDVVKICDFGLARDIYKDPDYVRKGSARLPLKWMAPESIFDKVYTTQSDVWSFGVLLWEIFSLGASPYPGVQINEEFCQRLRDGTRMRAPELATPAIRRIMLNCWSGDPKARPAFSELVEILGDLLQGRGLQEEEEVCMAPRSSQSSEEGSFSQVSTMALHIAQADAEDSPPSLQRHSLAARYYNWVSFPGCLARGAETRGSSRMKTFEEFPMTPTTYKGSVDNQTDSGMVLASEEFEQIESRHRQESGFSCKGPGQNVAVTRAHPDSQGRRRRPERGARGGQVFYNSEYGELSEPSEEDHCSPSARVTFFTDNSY", "experiment": "Kinase inhibition assay (LANCE or HTRF)", "format": "biochemical", "details": "ATP at Km", "experimental": "as §1"}, "Fgr": {"biological_target": "Fgr (Homo sapiens, UniProt P09769)", "sequence (P09769 whole entry)": "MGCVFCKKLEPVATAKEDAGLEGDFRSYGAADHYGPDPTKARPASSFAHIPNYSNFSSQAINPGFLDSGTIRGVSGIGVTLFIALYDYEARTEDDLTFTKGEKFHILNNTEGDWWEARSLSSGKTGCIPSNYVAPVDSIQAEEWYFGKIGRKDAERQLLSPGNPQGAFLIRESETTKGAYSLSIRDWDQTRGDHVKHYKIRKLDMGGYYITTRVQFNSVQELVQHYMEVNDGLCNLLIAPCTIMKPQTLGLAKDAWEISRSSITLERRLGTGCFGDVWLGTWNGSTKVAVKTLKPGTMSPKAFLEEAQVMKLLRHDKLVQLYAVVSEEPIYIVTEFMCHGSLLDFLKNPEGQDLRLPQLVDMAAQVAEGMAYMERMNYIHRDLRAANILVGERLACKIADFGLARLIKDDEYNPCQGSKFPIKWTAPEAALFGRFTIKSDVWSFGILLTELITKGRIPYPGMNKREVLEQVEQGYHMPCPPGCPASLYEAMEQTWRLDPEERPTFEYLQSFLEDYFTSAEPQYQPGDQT", "experiment": "Kinase inhibition assay (LANCE or HTRF)", "format": "biochemical", "details": "ATP at Km", "experimental": "as §1"}, "LnyA": {"biological_target": "LnyA (Homo sapiens, UniProt P07948)", "sequence (P07948 whole entry)": "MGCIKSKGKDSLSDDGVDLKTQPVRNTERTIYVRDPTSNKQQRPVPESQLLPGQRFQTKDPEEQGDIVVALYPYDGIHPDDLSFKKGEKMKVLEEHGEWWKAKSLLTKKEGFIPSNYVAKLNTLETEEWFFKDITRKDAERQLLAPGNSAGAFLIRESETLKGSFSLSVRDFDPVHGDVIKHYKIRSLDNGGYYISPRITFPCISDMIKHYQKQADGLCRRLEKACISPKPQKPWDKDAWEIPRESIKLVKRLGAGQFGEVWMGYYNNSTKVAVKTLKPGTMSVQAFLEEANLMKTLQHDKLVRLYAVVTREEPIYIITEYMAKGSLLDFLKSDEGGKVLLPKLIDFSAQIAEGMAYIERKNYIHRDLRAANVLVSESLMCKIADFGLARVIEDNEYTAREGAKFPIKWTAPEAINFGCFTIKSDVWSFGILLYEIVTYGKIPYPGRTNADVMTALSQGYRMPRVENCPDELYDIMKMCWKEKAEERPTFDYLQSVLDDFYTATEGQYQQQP", "experiment": "Kinase inhibition assay (LANCE or HTRF)", "format": "biochemical", "details": "ATP at Km", "experimental": "as §1"}, "[1]": {"experiment": "Phase I trial: clinical pharmacokinetics in plasma", "format": "in vivo, human", "procedure": "A clinical pharmacokinetic study of CT053PTSA was performed for both single doses and multiple doses. Blood samples were collected from each subject at prespecified times before and after single-dose administration (systemic blood samples: before treatment and 0.5, 1, 2, 3, 4, 5, 8, 12, 24, 36, 48, 72, 120 and 168 hours after treatment) and during multiple dosing (cycle 1 before treatment on Days 8, 15 and 22, as well as systemic blood samples on Day 28). […]\nStatistical analysis of CT053-treated tumors versus vehicle-treated tumors or versus nontreated tumors was performed by repeated-measures ANOVA. The data from the tumor xenograft models were expressed as the means ± standard error of the mean (SEM) and were plotted as a function of time. Noncompartmental pharmacokinetic analysis was performed using Phoenix WinNonlin Version 6.2.1 (Certara Inc., NJ, USA). Demographics and laboratory results of all the subjects were summarized using descriptive statistics. The pharmacokinetic parameters Tmax and T1/2 were shown as the median (min, max) and mean ± SD, respectively. A two-sided P < 0.05 was considered to indicate statistical significance. Statistical analysis was performed by using GraphPad Prism 5.0 (GraphPad Prism, RRID : SCR_002798) and SPSS software version 19.0 (SPSS, RRID : SCR_002865)."}, "EphA8": {"biological_target": "EphA8 (Homo sapiens, UniProt P29322)", "sequence (P29322 28-1005)": "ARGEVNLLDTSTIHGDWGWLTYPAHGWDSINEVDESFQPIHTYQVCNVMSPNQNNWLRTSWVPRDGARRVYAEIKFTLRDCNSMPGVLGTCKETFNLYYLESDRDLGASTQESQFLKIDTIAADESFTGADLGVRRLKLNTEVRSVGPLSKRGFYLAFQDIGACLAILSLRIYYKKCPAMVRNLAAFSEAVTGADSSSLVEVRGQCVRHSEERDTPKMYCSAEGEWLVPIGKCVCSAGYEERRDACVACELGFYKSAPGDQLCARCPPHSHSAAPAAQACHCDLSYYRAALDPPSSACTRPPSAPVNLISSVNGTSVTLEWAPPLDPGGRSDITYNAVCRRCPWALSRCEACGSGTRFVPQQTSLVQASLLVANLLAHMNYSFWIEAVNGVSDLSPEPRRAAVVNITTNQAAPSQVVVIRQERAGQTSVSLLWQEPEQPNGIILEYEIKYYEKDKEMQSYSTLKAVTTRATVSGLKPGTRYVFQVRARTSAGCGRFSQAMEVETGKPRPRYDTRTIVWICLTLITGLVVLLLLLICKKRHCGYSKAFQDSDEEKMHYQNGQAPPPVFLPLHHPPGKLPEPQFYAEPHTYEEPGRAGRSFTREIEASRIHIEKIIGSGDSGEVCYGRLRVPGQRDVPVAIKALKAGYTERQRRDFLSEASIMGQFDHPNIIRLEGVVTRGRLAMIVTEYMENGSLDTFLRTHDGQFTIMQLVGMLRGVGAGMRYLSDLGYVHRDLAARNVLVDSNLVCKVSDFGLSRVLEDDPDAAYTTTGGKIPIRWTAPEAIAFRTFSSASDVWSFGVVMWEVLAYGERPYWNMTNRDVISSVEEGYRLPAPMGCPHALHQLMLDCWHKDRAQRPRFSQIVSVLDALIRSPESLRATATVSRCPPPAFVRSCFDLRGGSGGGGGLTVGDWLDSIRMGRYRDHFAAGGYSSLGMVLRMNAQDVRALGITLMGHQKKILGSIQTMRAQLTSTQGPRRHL", "experiment": "Kinase inhibition assay (LANCE or HTRF)", "format": "biochemical", "details": "ATP at Km", "experimental": "as §1"}, "MKN45": {"tested_on": "MKN45", "experiment": "Cell proliferation assay (CellTiter-Glo, 72 hours)", "format": "cell-based", "details": "Homo sapiens, MKN-45, read-out: IC50 anti-proliferative", "experimental": "Human gastric tumor cell lines with high MET expression levels, namely, the GTL-16, MKN45, SNU638, Hs746T, SNU-620, and SNU-5 cell lines, were used in the assay. […] Cell viability was measured after 72 hours using a CellTiter-Glo Luminescent Cell Viability Assay Kit (Promega, WI, USA) according to the manufacturer’s instructions."}, "MERTK": {"biological_target": "MERTK (Homo sapiens, UniProt Q12866)", "experiment": "Kinase inhibition assay (LANCE or HTRF)", "format": "biochemical", "details": "ATP at Km", "experimental": "as §1"}, "[2]": {"biological_target": "KinomeScan panel of 95 kinase binding assays", "experiment": "KinomeScan kinase binding assay, panel of 95 kinase assays", "details": "10 μM single concentration", "procedure": "KinomeScan kinase binding assays were performed as described in reports i.\n%Ctrl Calculation: [test compound signal-positive control signalnegative control signal-positive control signal]?100\ntest compound = compound submitted by Calitor; negative control = DMSO (100%Ctrl); positive control = control compound (0%Ctrl)."}, "[3]": {"experiment": "Body weight of tumor-bearing mice in efficacy studies", "format": "in vivo", "details": "all groups, 1-20 mg/kg", "procedure": "Human tumor xenografts were established in female BALB/cA nude mice (5-6 weeks old) by administering the SNU-5 and MKN-45 cells, which have high MET expression levels. For efficacy studies in patient-derived tumor xenograft (PDX) mouse models, MET-overexpressing GA0046 and GA3121 tumors (obtained from Crownbio, CA, USA) were established by directly implanting surgical tissues into immunodeficient mice. […] The subcutaneous tumor size and body weight were measured twice weekly. The tumor volumes were determined by measuring two perpendicular diameters with calipers and calculated as (length × width^2)/2."}, "RON": {"biological_target": "RON (Homo sapiens, UniProt Q04912)", "sequence (Q04912 25-1400)": "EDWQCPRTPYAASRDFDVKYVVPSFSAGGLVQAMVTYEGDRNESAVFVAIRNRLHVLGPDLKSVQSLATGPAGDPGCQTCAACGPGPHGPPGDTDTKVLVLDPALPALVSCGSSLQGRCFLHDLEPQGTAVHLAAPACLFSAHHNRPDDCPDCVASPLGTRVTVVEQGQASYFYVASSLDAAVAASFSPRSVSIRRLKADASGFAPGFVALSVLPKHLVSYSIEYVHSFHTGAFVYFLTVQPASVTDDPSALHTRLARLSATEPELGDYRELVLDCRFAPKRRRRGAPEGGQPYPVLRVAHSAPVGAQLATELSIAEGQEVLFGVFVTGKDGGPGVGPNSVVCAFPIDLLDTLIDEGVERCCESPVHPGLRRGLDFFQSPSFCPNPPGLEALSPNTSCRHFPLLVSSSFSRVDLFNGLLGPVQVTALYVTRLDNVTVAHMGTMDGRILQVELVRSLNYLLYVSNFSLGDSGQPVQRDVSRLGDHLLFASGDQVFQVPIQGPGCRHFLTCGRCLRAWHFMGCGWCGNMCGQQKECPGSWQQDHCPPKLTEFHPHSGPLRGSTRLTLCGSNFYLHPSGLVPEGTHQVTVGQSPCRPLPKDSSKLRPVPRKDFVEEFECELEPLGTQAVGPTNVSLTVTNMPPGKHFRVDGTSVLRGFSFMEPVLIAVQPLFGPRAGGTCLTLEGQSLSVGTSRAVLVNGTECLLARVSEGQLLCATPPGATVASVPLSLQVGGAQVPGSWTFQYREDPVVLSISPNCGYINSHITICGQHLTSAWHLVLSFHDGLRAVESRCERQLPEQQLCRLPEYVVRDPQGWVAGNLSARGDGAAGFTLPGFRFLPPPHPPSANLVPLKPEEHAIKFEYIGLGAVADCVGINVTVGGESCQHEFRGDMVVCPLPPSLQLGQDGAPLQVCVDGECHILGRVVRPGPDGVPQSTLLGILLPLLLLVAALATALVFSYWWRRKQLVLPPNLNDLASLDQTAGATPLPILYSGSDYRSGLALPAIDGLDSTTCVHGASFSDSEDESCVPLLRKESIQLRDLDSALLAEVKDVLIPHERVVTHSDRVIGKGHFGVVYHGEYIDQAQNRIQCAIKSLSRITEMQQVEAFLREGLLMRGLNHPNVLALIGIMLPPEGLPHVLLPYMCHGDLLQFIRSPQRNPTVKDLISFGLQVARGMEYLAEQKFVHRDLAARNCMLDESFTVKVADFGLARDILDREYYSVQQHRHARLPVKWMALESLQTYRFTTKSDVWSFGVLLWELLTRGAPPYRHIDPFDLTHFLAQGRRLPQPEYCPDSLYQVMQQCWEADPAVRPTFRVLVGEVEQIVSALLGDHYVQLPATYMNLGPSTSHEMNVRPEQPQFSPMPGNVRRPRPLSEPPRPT", "experiment": "Kinase inhibition assay (LANCE or HTRF)", "format": "biochemical", "details": "ATP at Km", "experimental": "as §1"}}}
{"compound": "Cc1c(C(=O)Nc2ccc(Oc3ccnc4cc(OCC(C)(C)O)ccc34)c(F)c2)c(=O)n(-c2ccccc2)n1C", "note": "[CT053]", "values": [{"measurement": "IC50", "setting": "AXL", "result": 0.44, "unit": "nM"}, {"measurement": "IC50", "setting": "RET", "result": 200, "unit": "nM"}, {"measurement": "IC50", "setting": "MLK", "result": 160, "unit": "nM"}, {"measurement": "IC50", "setting": "TXK", "result": 270, "unit": "nM"}, {"measurement": "IC50", "setting": "FLT4", "result": 46, "unit": "nM"}, {"measurement": "IC50", "setting": "Fgr", "result": 77, "unit": "nM"}, {"measurement": "IC50", "setting": "LnyA", "result": 240, "unit": "nM"}, {"measurement": "PK profile versus dose", "setting": "[1]; multiple doses, 60-100 mg", "result": "linear PK profile"}, {"measurement": "PK profile versus dose", "setting": "[1]; single oral dose, 15 to 150 mg", "result": "general linear PK profile"}, {"measurement": "IC50", "setting": "EphA8", "result": 620, "unit": "nM"}, {"measurement": "IC50", "setting": "MKN45", "result": 100, "unit": "nM"}, {"measurement": "IC50", "setting": "MERTK", "result": 14, "unit": "nM"}, {"measurement": "kinase interaction pattern", "setting": "[2]", "result": "highly specific"}, {"measurement": "change in body weight", "setting": "[3]", "result": "no significant change in body weight"}, {"measurement": "IC50", "setting": "RON", "result": 160, "unit": "nM"}]}
